Measured values from ChEMBL document CHEMBL5579900, “Enhanced Recognition Memory through Dual Modulation of Brain Carbonic Anhydrases and Cholinesterases” (J Med Chem, 2024).

How the values were obtained:
[1] = target: Carbonic anhydrase 4 (Homo sapiens) (UniProt P22748)
Description: Binding affinity to human carbonic anhydrase 4 assessed as activation constant by phenol red dye based stopped-flow method

[2] = target: Carbonic anhydrase 7 (Homo sapiens) (UniProt P43166)
Description: Binding affinity to human carbonic anhydrase 7 assessed as activation constant by phenol red dye based stopped-flow method

[3] = target: Carbonic anhydrase 2 (Homo sapiens) (UniProt P00918)
Description: Binding affinity to human carbonic anhydrase 2 assessed as activation constant by phenol red dye based stopped-flow method

Acetylcholinesterase = Acetylcholinesterase (Electrophorus electricus, UniProt O42275)
Description: Inhibition of electric eel AChE by microplate reader based analysis

[4] = target: Carbonic anhydrase 1 (Homo sapiens) (UniProt P00915)
Description: Binding affinity to human carbonic anhydrase 1 assessed as activation constant by phenol red dye based stopped-flow method

[5] = target: Carbonic anhydrase 5B, mitochondrial (Homo sapiens) (UniProt Q9Y2D0)
Description: Binding affinity to human carbonic anhydrase 5B assessed as activation constant by phenol red dye based stopped-flow method

Cholinesterase = Cholinesterase (Equus caballus, UniProt P81908)
Sequence of Cholinesterase (P81908 whole entry): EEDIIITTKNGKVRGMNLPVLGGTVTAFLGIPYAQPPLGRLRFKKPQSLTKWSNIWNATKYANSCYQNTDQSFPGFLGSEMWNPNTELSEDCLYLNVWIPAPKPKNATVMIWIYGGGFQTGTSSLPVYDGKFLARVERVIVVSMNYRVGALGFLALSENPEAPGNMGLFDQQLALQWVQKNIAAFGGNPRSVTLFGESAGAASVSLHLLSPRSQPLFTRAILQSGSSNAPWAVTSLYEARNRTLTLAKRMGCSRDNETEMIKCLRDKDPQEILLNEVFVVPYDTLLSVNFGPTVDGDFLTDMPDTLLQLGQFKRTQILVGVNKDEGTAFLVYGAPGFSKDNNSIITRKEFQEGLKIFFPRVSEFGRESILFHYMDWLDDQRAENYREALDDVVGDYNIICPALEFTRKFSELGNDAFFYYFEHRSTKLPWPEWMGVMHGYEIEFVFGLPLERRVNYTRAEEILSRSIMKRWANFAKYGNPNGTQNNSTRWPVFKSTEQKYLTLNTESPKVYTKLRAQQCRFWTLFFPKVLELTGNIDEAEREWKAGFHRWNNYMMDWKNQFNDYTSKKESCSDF
Description: Inhibition of equine serum BuChE by microplate reader based analysis

Sequence of Carbonic anhydrase 4 (Homo sapiens) (P22748 whole entry): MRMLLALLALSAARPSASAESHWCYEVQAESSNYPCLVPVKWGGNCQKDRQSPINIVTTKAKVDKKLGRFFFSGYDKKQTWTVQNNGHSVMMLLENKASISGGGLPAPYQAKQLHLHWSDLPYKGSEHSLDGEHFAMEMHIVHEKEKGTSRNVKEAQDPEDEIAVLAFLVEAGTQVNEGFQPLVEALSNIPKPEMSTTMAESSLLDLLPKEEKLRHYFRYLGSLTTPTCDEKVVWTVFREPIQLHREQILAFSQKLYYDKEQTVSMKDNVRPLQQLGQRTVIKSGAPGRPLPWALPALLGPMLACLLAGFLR
Sequence of Acetylcholinesterase (O42275 whole entry): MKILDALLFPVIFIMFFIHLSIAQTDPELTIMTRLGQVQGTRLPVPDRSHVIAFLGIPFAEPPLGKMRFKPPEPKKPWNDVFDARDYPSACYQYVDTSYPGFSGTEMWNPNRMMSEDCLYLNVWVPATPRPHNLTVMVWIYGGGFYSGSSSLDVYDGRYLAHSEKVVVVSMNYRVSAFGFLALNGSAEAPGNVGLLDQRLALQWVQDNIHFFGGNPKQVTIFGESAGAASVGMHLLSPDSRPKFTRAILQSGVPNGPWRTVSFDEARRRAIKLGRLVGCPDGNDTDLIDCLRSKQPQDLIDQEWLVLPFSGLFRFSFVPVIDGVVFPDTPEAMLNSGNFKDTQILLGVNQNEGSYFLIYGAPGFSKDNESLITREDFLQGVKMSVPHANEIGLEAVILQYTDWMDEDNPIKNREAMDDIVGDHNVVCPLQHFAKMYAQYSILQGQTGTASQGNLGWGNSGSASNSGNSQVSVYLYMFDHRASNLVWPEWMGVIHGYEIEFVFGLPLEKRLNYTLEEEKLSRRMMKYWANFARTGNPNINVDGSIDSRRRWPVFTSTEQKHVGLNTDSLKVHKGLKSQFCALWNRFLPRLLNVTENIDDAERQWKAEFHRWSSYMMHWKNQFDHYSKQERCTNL
Sequence of Carbonic anhydrase 5B, mitochondrial (Homo sapiens) (Q9Y2D0 whole entry): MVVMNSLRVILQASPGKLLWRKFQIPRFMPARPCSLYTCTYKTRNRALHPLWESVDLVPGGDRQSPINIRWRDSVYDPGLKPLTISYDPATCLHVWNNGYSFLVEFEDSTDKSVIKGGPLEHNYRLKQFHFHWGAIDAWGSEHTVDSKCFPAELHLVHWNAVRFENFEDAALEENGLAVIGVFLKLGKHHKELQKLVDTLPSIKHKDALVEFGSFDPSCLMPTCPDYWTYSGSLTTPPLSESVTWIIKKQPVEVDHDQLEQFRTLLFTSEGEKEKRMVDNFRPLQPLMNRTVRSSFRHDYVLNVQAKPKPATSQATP
Sequence of Carbonic anhydrase 7 (Homo sapiens) (P43166 whole entry): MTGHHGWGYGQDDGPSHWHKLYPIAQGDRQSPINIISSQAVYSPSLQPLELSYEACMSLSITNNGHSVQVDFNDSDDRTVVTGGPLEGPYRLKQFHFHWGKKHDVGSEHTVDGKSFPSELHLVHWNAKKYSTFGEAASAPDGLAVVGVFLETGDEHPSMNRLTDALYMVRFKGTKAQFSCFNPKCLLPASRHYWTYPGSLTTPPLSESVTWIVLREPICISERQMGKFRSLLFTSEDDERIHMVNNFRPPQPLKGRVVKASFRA
Sequence of Carbonic anhydrase 1 (Homo sapiens) (P00915 2-261 limits assumed): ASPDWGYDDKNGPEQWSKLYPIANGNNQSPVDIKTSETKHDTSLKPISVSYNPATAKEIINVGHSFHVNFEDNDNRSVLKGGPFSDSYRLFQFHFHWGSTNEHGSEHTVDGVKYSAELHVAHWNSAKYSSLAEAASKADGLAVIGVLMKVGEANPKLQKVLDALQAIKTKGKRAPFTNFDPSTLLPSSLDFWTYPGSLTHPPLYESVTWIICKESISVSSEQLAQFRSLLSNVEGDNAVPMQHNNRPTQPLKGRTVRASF

| SMILES | KA ([1]; filed as activator) [µM] | KA ([2]; filed as activator) [nM] | KA ([3]; filed as activator) [nM] | IC50 (Acetylcholinesterase) [nM] | KA ([4]; filed as activator) [nM] | KA ([5]; filed as activator) [µM] | IC50 (Cholinesterase) [nM] | KA [1] [µM] | KA [2] [nM] | KA [3] [nM] | KA [4] [nM] | KA [5] [µM] |
| --- | --- | --- | --- | --- | --- | --- | --- | --- | --- | --- | --- | --- |
| COC(=O)[C@H](Cc1c[nH]c2ccccc12)NCCCCCNc1c2c(nc3ccccc13)CCCC2 | 2.93 | 482 | 840 | 37.6 | 606 | 0.471 | 4 | – | – | – | – | – |
| COC(=O)[C@@H](N)Cc1ccc(OCCCCCCNc2c3c(nc4ccccc24)CCCC3)cc1 | 8.25 | 185 | 295 | 26.4 | 702 | 6.16 | 2.7 | – | – | – | – | – |
| N[C@@H](Cc1c[nH]cn1)C(=O)NCCCCCCNc1c2c(nc3ccccc13)CCCC2 | 3.56 | 82.8 | 283 | 12.1 | 1050 | 0.554 | 5.2 | – | – | – | – | – |
| CC(C)(C)OC(=O)N[C@@H](Cc1ccccc1)C(=O)NCCCCNc1c2c(nc3ccccc13)CCCC2 | – | – | – | 158 | – | – | 0.38 | > 50 | > 50000 | > 50000 | > 50000 | > 50 |
| CC(C)(C)OC(=O)N[C@@H](CCCCNC(=O)OCc1ccccc1)C(=O)NCCCCNc1c2c(nc3ccccc13)CCCC2 | – | – | – | 327 | – | – | 0.16 | > 50 | > 50000 | > 50000 | > 50000 | > 50 |
| N[C@@H](Cc1c[nH]cn1)C(=O)NCCCNc1c2c(nc3ccccc13)CCCC2 | 0.619 | 281 | 376 | 119 | 581 | 1.86 | 5.8 | – | – | – | – | – |
| N[C@@H](Cc1c[nH]c2ccccc12)C(=O)NCCCNc1c2c(nc3ccccc13)CCCC2 | 2.33 | 566 | 833 | 58.9 | 1010 | 1.96 | 1.6 | – | – | – | – | – |
| N[C@@H](CCCCNC(=O)OCc1ccccc1)C(=O)NCCCCCNc1c2c(nc3ccccc13)CCCC2 | 3.61 | 2730 | 981 | 238 | 3530 | 4.97 | 0.33 | – | – | – | – | – |
| COC(=O)[C@H](Cc1c[nH]c2ccccc12)NCCCCCCNc1c2c(nc3ccccc13)CCCC2 | 2.23 | 637 | 631 | 23.3 | 436 | 5.1 | 2.8 | – | – | – | – | – |
| c1ccc2c(NCCCCCNCCc3c[nH]cn3)c3c(nc2c1)CCCC3 | 1.28 | 439 | 290 | 60.2 | 439 | 0.541 | 2.4 | – | – | – | – | – |
| CC(C)(C)OC(=O)N[C@@H](CCCCNC(=O)OCc1ccccc1)C(=O)NCCCCCNc1c2c(nc3ccccc13)CCCC2 | – | – | – | 299 | – | – | 0.34 | > 50 | > 50000 | > 50000 | > 50000 | > 50 |
| COC(=O)[C@H](CCCCNC(=O)OCc1ccccc1)NCCCCCCNc1c2c(nc3ccccc13)CCCC2 | 20.2 | 2250 | 2410 | 35.6 | 2280 | 4.61 | 0.29 | – | – | – | – | – |
| N[C@@H](Cc1c[nH]cn1)C(=O)NCCCCNc1c2c(nc3ccccc13)CCCC2 | 0.958 | 391 | 199 | 101 | 972 | 1.47 | 4.1 | – | – | – | – | – |
| COC(=O)[C@H](CCCCNC(=O)OCc1ccccc1)NCCCCCNc1c2c(nc3ccccc13)CCCC2 | 19 | 1370 | 1990 | 12.4 | 3300 | 1.4 | 0.073 | – | – | – | – | – |
| N[C@@H](Cc1ccccc1)C(=O)NCCCCNc1c2c(nc3ccccc13)CCCC2 | 7.62 | 433 | 565 | 465 | 432 | 4.79 | 9.5 | – | – | – | – | – |
| CC(C)(C)OC(=O)N[C@@H](Cc1cn(C(=O)OC(C)(C)C)cn1)C(=O)NCCCNc1c2c(nc3ccccc13)CCCC2 | – | – | 15900 | 157 | – | – | 3.6 | > 50 | > 50000 | – | > 50000 | > 50 |
| COC(=O)[C@H](Cc1ccccc1)NCCCCCCNc1c2c(nc3ccccc13)CCCC2 | 1.45 | 397 | 312 | 21.8 | 992 | 5.17 | 0.21 | – | – | – | – | – |
| N[C@@H](Cc1c[nH]c2ccccc12)C(=O)NCCCCNc1c2c(nc3ccccc13)CCCC2 | 3.12 | 289 | 413 | 145 | 542 | 0.703 | 2.4 | – | – | – | – | – |
| N[C@@H](Cc1ccccc1)C(=O)NCCCNc1c2c(nc3ccccc13)CCCC2 | 5.85 | 491 | 726 | 239 | 893 | 0.971 | 0.22 | – | – | – | – | – |
| CC(C)(C)OC(=O)N[C@@H](Cc1cn(C(=O)OC(C)(C)C)cn1)C(=O)NCCCCNc1c2c(nc3ccccc13)CCCC2 | – | – | 12400 | 122 | – | – | 0.064 | > 50 | > 50000 | – | > 50000 | > 50 |
| c1ccc2c(NCCCCCCNCCc3c[nH]cn3)c3c(nc2c1)CCCC3 | 2.28 | 386 | 102 | 2.2 | 236 | 0.5 | 2 | – | – | – | – | – |
| CC(C)(C)OC(=O)N[C@@H](Cc1cn(C(=O)OC(C)(C)C)cn1)C(=O)NCCCCCNc1c2c(nc3ccccc13)CCCC2 | – | – | 11100 | 141 | – | 9.05 | 0.57 | > 50 | > 50000 | – | > 50000 | – |
| CC(C)(C)OC(=O)N[C@@H](Cc1c[nH]c2ccccc12)C(=O)NCCCCNc1c2c(nc3ccccc13)CCCC2 | 8.58 | 2630 | 7650 | 82.3 | 2620 | 8.64 | 0.21 | – | – | – | – | – |
| N[C@@H](Cc1c[nH]c2ccccc12)C(=O)NCCCCCCNc1c2c(nc3ccccc13)CCCC2 | 0.541 | 79.8 | 539 | 2.4 | 876 | 0.353 | 1.2 | – | – | – | – | – |
| CC(C)(C)OC(=O)N[C@@H](Cc1cn(C(=O)OC(C)(C)C)cn1)C(=O)NCCCCCCNc1c2c(nc3ccccc13)CCCC2 | – | – | 10000 | 14.5 | – | – | 0.44 | > 50 | > 50000 | – | > 50000 | > 50 |
| CC(C)(C)OC(=O)N[C@@H](Cc1ccccc1)C(=O)NCCCNc1c2c(nc3ccccc13)CCCC2 | – | – | – | 202 | – | – | 0.16 | > 50 | > 50000 | > 50000 | > 50000 | > 50 |
| N[C@@H](Cc1c[nH]c2ccccc12)C(=O)NCCCCCNc1c2c(nc3ccccc13)CCCC2 | 1.72 | 105 | 119 | 37.8 | 630 | 0.936 | 1 | – | – | – | – | – |
| NCCc1c[nH]cn1 | 25 | 37000 | – | – | 2100 | 3.5 | – | – | – | > 100000 | – | – |
